We go through 4 compounds from ChEMBL document CHEMBL1201862, “PubChem BioAssay data set” (2004).

Some test systems named below: BT-549; SK-MEL-5; KM12; RPMI-8226; COLO 205; A549; MOLT-4; OVCAR-3; SK-MEL-2; SW-620; SN12C; NCI-H522; HOP-92; 786-0; EKVX; SK-MEL-28; UO-31; NCI-H460; OVCAR-4; PC-3.
What all share (assay): NCI anticancer screen, dose series, 48 h

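Briefly, cells in 96-well plates were exposed to five compound concentrations for 48 h, and endpoints were estimated by linear interpolation. Here, GI50 denotes the concentration required for 50% inhibition of growth.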 Calls of active or inactive are those of the source. Rule as the data show it: active = GI50 up to about 1.1 µM and inactive = higher. Bounds are passed on as bounds.

As to `COc1ccc(/C=C2\CCC(C)(CN(C)C)C2=O)cc1Br` (stereo not given), the GI50 in the assay with BT-549 is 16 µM (inactive); with SK-MEL-5, 14.8 µM (inactive); in the assay with KM12, 14 µM (inactive); in the assay with RPMI-8226 it was 19.1 µM (inactive); with COLO 205, 18.5 µM (inactive); with A549, 38.4 µM (inactive). The GI50 in the assay with MOLT-4 was 20.3 µM (inactive); in the assay with OVCAR-3, 18.2 µM (inactive); with SK-MEL-2, 18.7 µM (inactive); with SW-620 it was 19.8 µM (inactive); with SN12C, 17.5 µM (inactive); in the assay on NCI-H522, 17 µM (inactive). Also, the GI50 is 29.9 µM (inactive) in the assay with HOP-92; 19.6 µM (inactive) with 786-0; 10.2 µM (inactive) with EKVX; 22.9 µM (inactive) with SK-MEL-28; 18.1 µM (inactive) in the assay with UO-31; 26.7 µM (inactive) in the assay with NCI-H460. Moreover, the GI50 is 18.9 µM (inactive) in the assay on OVCAR-4 and 20.4 µM (inactive) with PC-3.

Consider `COC(=O)C12C3C4C1C1C2C3C41C(=O)NC(C)(C)CC(=O)O` (stereo not given), for which the GI50 in the assay with BT-549, in the assay on SK-MEL-5, with KM12, with RPMI-8226, in the assay with COLO 205 and with A549 was > 100 µM (inactive) in each case. Moreover, the GI50 with MOLT-4, in the assay with OVCAR-3, in the assay on SK-MEL-2, with SW-620, in the assay on SN12C and with NCI-H522 was > 100 µM (inactive) each time. Also, the GI50 in the assay on HOP-92 is > 100 µM (inactive); with 786-0, > 100 µM (inactive); with EKVX, > 100 µM (inactive); in the assay on SK-MEL-28, > 100 µM (inactive); with UO-31, > 100 µM (inactive); with NCI-H460, 20.7 µM (inactive). Further, the GI50 in the assay with OVCAR-4 and with PC-3 was > 100 µM (inactive) throughout.

Turning to `CC(CO)[C@H]1OC(=O)C=C2[C@@]13O[C@@H]3[C@H]1OC(=O)[C@@]3(C)[C@H]4O[C@H]4C[C@@]2(C)[C@@H]13` (stereo not given in full), the GI50 is 2.11 µM (inactive) in the assay with BT-549; 0.8 µM (active) with SK-MEL-5; 1.19 µM (inactive) in the assay with KM12; 2.22 µM (inactive) with RPMI-8226; 1.58 µM (inactive) in the assay with COLO 205; 1.87 µM (inactive) with A549. In addition, the GI50 in the assay with MOLT-4 was 0.488 µM (active); in the assay with OVCAR-3, 2.17 µM (inactive); with SK-MEL-2, 2.07 µM (inactive); with SW-620 it was 1.65 µM (inactive); in the assay on SN12C, 1.92 µM (inactive); in the assay on NCI-H522, 1.46 µM (inactive). Besides, the GI50 in the assay on HOP-92 is 2.71 µM (inactive); with 786-0, 1.57 µM (inactive); with EKVX, 2.64 µM (inactive); with SK-MEL-28 it was 1.83 µM (inactive); with UO-31, 1.73 µM (inactive); with NCI-H460 it was 0.583 µM (active). Besides, the GI50 with OVCAR-4 was 1.15 µM (inactive); with PC-3 it was 2.96 µM (inactive).

As to `CNS(=O)(=O)c1ccccc1C(=N)c1ccccc1`, the GI50 with BT-549, in the assay on SK-MEL-5, in the assay with KM12, in the assay with RPMI-8226, in the assay on COLO 205 and in the assay with A549 was > 100 µM (inactive) throughout. The GI50 with MOLT-4, in the assay with OVCAR-3, in the assay on SK-MEL-2, in the assay on SW-620, in the assay with SN12C and with NCI-H522 was > 100 µM (inactive) each time. In addition, the GI50 in the assay with HOP-92, in the assay on 786-0, in the assay on EKVX, in the assay with SK-MEL-28, in the assay on UO-31 and in the assay on NCI-H460 was > 100 µM (inactive) throughout. For the same compound, the GI50 in the assay on OVCAR-4 and in the assay on PC-3 was > 100 µM (inactive) throughout.
